Assay results taken from patent US9283234B2, “Compositions and methods for suppressing endometrial proliferation” (REPROS THERAPEUTICS INC., priority 2006, dated 2016).

Columns and labels:
endometrium = assay: Six month endometriosis study: endometrial thickness (ultrasound) / endometrial proliferation; assay type: in vivo, pre-menopausal adult women
Excerpt: Comparisons were made to both baseline and visit one ultrasound measurements of endometrial thickness. […]

[1] = Measuring serum corticosterone in rats; conditions: for differences in serum corticosterone between treatment groups: progesterone, CDB-4124 and RU-486 groups compared
[2] = Six month endometriosis study: side effects and bleeding; assay type: in vivo, pre-menopausal adult women; conditions: for non-menstrual spotting and bleeding with excessive endometrial thickening, D&C performed: treatment phase
Description: Although this was a small study and no definitive conclusions can be made from the safety data, there was no single signal of safety observed.
A similar event was not seen at the 50 mg dose during the treatment phase. Greater than normal bleeding occurred in two patients in the 50 mg CDB-4124 group after treatment was stopped and a D&C was performed in one and the other successfully managed conservatively.

[3] = system: pain associated with endometriosis; assay: Six month endometriosis study: pain diaries and symptom surveys; assay type: in vivo, pre-menopausal adult women; design: key to score for intensity of pain on a bad day: 0-10 scale; 0 = no pain, 10 = extreme pain
Description: Pain reduction also occurred more rapidly than with the active control, LUCRIN. The response of pain to treatment in this study was analyzed in two ways. Patients in the study maintained daily pain diaries to record the severity and frequency of pain. In addition, at each office visit, patients filled out endometriosis symptom surveys that included a questionnaire that evaluated intensity of pain on a bad day on a scale of 0-10 with 10 being the greatest intensity. […] There appeared to be a dose dependent effect on pain reduction. […] This decrease in duration of pain was statistically better (p=0.0012) than the 117.8 (74%; standard deviation 51.4 days) pain free days achieved with LUCRIN. […] Patients on CDB-4124 12.5 mg and 25 mg doses had 115.9 (66%; standard deviation 69.2 days) and 133.6 (75%; standard deviation 27.4 days) pain free days, respectively. […] The 25 mg and 12.5 mg doses of CDB-4124 were not statistically different from LUCRIN. […] The intensity of pain was asked by the question: “On a scale of 1-10, with 0 being no pain and 10 being extreme pain, how intense was your pain on a bad day?” The mean scores for intensity of pain at baseline were 6.3 for the CDB-4124 groups and 6.1 for the LUCRIN group. […] At month three all four active treatment groups had statistically significant reduction in pain compared with baseline, with the following scores: 3.7 (p=0.03) for 12.5 mg CDB-4124, 3.2 (p=0.03) for 25 mg CDB-4124, 1.6 (p=0.015) for 50 mg CDB-4124 and 1.5 (p=0.016) for LUCRIN. These dose related reductions continued until month six when the values for pain intensity were 2.0 (p=0.008), 2.8 (p=0.023), 0.6 (p=0.004) and 0.7 (p=0.016), respectively. Two months after stopping treatment pain returned and was of similar intensity in all four treatment groups.

[4] = estrogenic, androgenic, anti-estrogenic and anti-androgenic activities
Excerpt: These methods include receptor binding and in vivo bioassays such as anti-McGinty, anti-Clauberg, glucocorticoid, estrogenic, androgenic, anti-glucocorticoid (AG), anti-estrogen, and anti-androgen activities as well as post-coital and anti-ovulatory activities where in the leading compounds of the instant invention are used as a reference.

[5] = Measuring serum cortisol in rats; assay type: in vivo; conditions: for serum cortisol versus control group: 10 mg/kg, 21 days of chronic dosing, FIG. 1
[6] = Six month endometriosis study: estrogen and biomarkers of bone resorption; assay type: in vivo, pre-menopausal adult women
Description: Thirty-nine pre-menopausal adult women diagnosed with endometriosis were the subject of a six month study of Proellex™ (CDB-4124) in the treatment of endometriosis. The study included three dose levels of CDB-4124 as well as a positive control arm. The positive control was LUCRIN, a GnRH agonist, commonly used for the treatment of endometriosis (also known as LUPRON. CDB-4124 was administered in a double blinded fashion as a daily oral capsule at dosages of 12.5 mg/day (n=2), 25 mg/day (n=3) and 50 mg/day (n=3). Another group (n=4) were injected with a slow release formulation of LUCRIN once per month as a positive control.

[7] = molecular target: T1, glucocorticoid receptor (rbGR) (Oryctolagus cuniculus, UniProt P59667); assay: glucocorticoid receptor binding; design: species or system rabbit
T1 construct: cytosol containing PR or GR were prepared in TEGMD buffer; from tissue; host or cells: thymus of estradiol-primed immature rabbits (cytosol)
T1 sequence (P59667 1-772): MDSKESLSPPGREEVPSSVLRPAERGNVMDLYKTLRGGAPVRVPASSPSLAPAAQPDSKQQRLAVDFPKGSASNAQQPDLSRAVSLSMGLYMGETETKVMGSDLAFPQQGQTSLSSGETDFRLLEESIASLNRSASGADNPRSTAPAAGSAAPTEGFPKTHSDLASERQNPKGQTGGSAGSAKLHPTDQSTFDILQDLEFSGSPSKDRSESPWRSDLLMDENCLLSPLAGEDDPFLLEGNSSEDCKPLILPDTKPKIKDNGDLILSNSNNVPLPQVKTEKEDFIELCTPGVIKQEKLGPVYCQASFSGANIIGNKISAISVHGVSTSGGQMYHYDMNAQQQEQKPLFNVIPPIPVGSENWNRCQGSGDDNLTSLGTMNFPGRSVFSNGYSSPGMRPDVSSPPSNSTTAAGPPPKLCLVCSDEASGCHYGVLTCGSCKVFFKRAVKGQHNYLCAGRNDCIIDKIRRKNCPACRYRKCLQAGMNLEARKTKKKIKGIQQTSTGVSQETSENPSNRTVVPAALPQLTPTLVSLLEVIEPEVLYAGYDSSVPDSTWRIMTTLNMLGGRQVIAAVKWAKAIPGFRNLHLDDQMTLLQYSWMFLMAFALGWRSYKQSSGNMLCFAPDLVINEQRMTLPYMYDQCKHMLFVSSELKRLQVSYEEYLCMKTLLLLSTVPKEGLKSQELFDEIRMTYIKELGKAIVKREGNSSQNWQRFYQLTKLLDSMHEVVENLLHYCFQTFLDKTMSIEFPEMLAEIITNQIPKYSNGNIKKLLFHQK
Description: Certain antiprogestins were tested in receptor-binding assays for their ability to bind rabbit progesterone receptor (rbPR) and glucocorticoid receptor (rbGR). […] For PR binding, the cytosol was incubated with 6 nM 1,2-[^3H]progesterone (50.0 Ci/mmole) and competitors were added at concentrations from 2 to 100 nM. For binding to GR, the cytosol was incubated with 6 nM 6,7-[^3H]-dexamethasone (40 Ci/mmol) and test compounds were added at concentrations from 20 to 100 nM. After overnight incubation at 4 C, bound and unbound [^3H] steroids were separated by addition of dextran-coated charcoal and centrifugation at 2100×g for 15 min at 4 C. Supernatants containing the [^3H]-steroid receptor complexes were decanted into vials containing 4 ml OPTIFLUOR scintillation fluid (Packard Instrument Co.), vortexed, equilibrated in a liquid scintillation counter for 30 minutes and then counted for 2 minutes. […] The standards for the PR and GR assays were unlabeled progesterone and dexamethasone, respectively.

[8] = Attardi et al., 2002; cited from earlier work

COCC(=O)[C@@]1(OC(C)=O)CC[C@H]2[C@@H]3CCC4=CC(=O)CCC4=C3[C@@H](c3ccc(N(C)C)cc3)C[C@@]21C [CDB-4124, 21-methoxy-17α-acetoxy-11β-(4 N,N-dimethylaminophenyl)-19-norpregna-4,9-diene-3,20-dione]
women exhibiting thickened endometrium after three months (endometrium; 12.5 mg (n=4)): two women
women exhibiting thickened endometrium after three months (endometrium; 25 mg (n=4)): One person
women exhibiting thickened endometrium after three months (endometrium; 50 mg (n=3)): none of the women
endometrial proliferation in adult females (endometrium; high dosage 50 mg/day): suppresses endometrial proliferation
endometrial proliferation in adult females (endometrium; lower dosages 25 mg/day and 12.5 mg/day): does not suppress endometrial proliferation
effect on the primary glucocorticoid of the rat (corticosterone) [1]: no strong effect
differences in serum corticosterone between treatment groups [1]: No differences in serum corticosterone
non-menstrual spotting and bleeding with excessive endometrial thickening, D&C performed ([2]; 12.5 mg and 25 mg groups): two cases
non-menstrual spotting and bleeding with excessive endometrial thickening, D&C performed ([2]; 50 mg dose): not seen
greater than normal bleeding after treatment was stopped ([2]; 50 mg group): two patients
days of pain over the first three months versus highest dose of CDB-4124 or LUCRIN ([3]; 25 mg and 12.5 mg daily oral): more days of pain
relief from pain (intensity) by the first month ([3]; 25 mg and 50 mg groups): Statistically significant relief from pain
days of pain at the end of the first month compared with baseline ([3]; 50 mg, p=0.031): statistically significant reduction in days of pain
distress related to pain over the six month exposure ([3]; all doses, on average): reduced distress related to pain
mean score for intensity of pain on a bad day ([3]; baseline, scale 0-10): 6.3
score for intensity of pain on a bad day ([3]; month six, 12.5 mg): 2.0
score for intensity of pain on a bad day ([3]; month six, 25 mg): 2.8
score for intensity of pain on a bad day ([3]; month six, 50 mg): 0.6
score for intensity of pain on a bad day ([3]; month three, 12.5 mg): 3.7
score for intensity of pain on a bad day ([3]; month three, 25 mg): 3.2
score for intensity of pain on a bad day ([3]; month three, 50 mg): 1.6
estrogenic, androgenic, anti-estrogenic, and anti-androgenic activities [4]: lack
serum cortisol versus control group [5]: significantly higher levels of serum cortisol
dose-dependent effect on serum cortisol ([5]; increasing doses, FIG. 2): increased cortisol
estrogen concentration (mean) ([6]; all doses of CDB-4124): > 40 pg/mL
biomarkers of bone resorption compared with baseline ([6]; month three (LUCRIN, p=0.023), three and six months (any dose arm of CDB-4124)): no significant changes in biomarkers of bone resorption

CC#C[C@]1(O)CC[C@H]2[C@@H]3CCC4=CC(=O)CCC4=C3[C@@H](c3ccc(N(C)C)cc3)C[C@@]21C [RU 486, 11β-[p-(Dimethylamino)phenyl]-17β-hydroxy-17-(1-propynyl)estra-4,9-dien-3-one, reference compound]
differences in serum corticosterone between treatment groups [1]: No differences in serum corticosterone
serum cortisol versus control group [5]: no significant difference in the levels of cortisol
anti-glucocorticoid receptor activity / glucocorticoid receptor binding [7]: moderately active in glucocorticoid receptor binding

CNc1ccc([C@H]2C[C@@]3(C)[C@@H](CC[C@]3(OC(C)=O)C(=O)COC)[C@@H]3CCC4=CC(=O)CCC4=C32)cc1 [CDB-4453, 21-methoxy-17α-acetoxy-11β-(4-N-methylaminophenyl)-19-norpregna-4,9-diene-3,20-dione]
anti-glucocorticoid activity relative to parent CDB-4124 [8]: even lower anti-glucocorticoid activity than its parent
